Laboratory results from article PMC12596758 (Clinical pharmacology and therapeutics, 2025).
Where two headings read alike, the source gives them in different places. Values belong to the molecule of their own block, whether it stands above or below them.

Experiments:
[1] = system: nicotinamide N-methyltransferase, NNMT; details: cited from earlier work
OCT2 = details: read-out: IC50 for OCT2; cited from earlier work
aldehyde oxidase, AO = details: cited from earlier work
OCT1 [2] = details: potent OCT1 inhibitor new chemical entity vs placebo, healthy adults; cited from earlier work
[3] = for relative plasma concentrations between study arms: targeted analysis, baseline vs cimetidine exposure
[4] = rats, cimetidine 100 mg/kg intraperitoneally; cited from earlier work
[5] = cited from earlier work
clinical = details: both, human, po; for Cmax: plasma
Oct1 [6] = details: Oct1 knockout mice vs wild-type mice, single oral dose of metformin; cited from earlier work
[7] = excreted unchanged into urine; cited from earlier work
[8] = pyrimethamine 75 mg, healthy adults; cited from earlier work
[9] = cimetidine 400 mg vs baseline, healthy adults
[10] = decrease with cimetidine 400 mg vs baseline, healthy adults
[11] = increase with cimetidine 400 mg vs baseline, healthy adults
[12] = cimetidine 400 mg vs baseline, healthy adults, listed as NMA

CL renal (clinical; plasma and urine): 68.3 mL/min
Cmax (clinical): 2.6 ng/mL
Cmax (clinical; 50 mg): 2.6 ng/mL
AUC(0–4 h), effect of cimetidine exposure vs baseline (in words) [3, 9]: comparable
AUC(0–24 h), effect of cimetidine exposure vs baseline (in words) [3, 9]: comparable
CLr,a, effect of cimetidine exposure vs baseline (in words) [3, 9]: No change
CLr,b, effect of cimetidine exposure vs baseline (in words) [3, 9]: comparable
Cmax, effect of cimetidine exposure vs baseline (in words) [3, 9]: No change
CLr,a, effect of cimetidine exposure vs baseline (in words) [3, 12]: comparable
Cmax, effect of cimetidine exposure vs baseline (in words) [3, 12]: comparable
AUC(0–4 h) %Change (cimetidine exposure/baseline), decrease (↓) [3, 10]: 5% (↓)
AUC(0–24 h) %Change (cimetidine exposure/baseline), decrease (↓) [3, 10]: 5% (↓)
CLr,b %Change (cimetidine exposure/baseline), increase (↑) [3, 11]: 53% (↑)
SMILES: Cn1cnc2c(ncn2[C@@H]2O[C@H](CO)[C@@H](O)[C@H]2O)c1=N [N1-Methyladenosine, N1-methyladenosine]
reduction in CLr [8]: 47%
Ae(0–4 h), effect of cimetidine exposure vs baseline (in words) [3, 9]: comparable
Ae(0–24 h), effect of cimetidine exposure vs baseline (in words) [3, 9]: comparable
Ae(0–24 h) %Change (cimetidine exposure/baseline), decrease (↓) [3, 10]: 4% (↓)
Ae(0–4 h) %Change (cimetidine exposure/baseline), increase (↑) [3, 11]: 44% (↑)

relative plasma concentrations between study arms [3]: no significant differences
SMILES: C[n+]1cccc(C(=O)O)c1 [N1-methyl nicotinic acid]

relative plasma concentrations between study arms [3]: no significant differences
SMILES: CC(=O)OCC[N+](C)(C)C [acetylcholine]

relative plasma concentrations between study arms [3]: no significant differences
SMILES: C[N+](C)(C)CCO [choline]

relative plasma concentrations between study arms [3]: no significant differences
SMILES: N[C@@H](Cc1c[nH]c2ccccc12)C(=O)O [tryptophan]

Second part, the molecule before the results:

SMILES: CN/C(=N/CCSCc1nc[nH]c1C)NC#N [Cimetidine, cimetidine]
inhibition of NNMT activity [1]: does not inhibit
IC50 (OCT2): 23.6 to 207 µM
inhibition of AO activity (aldehyde oxidase, AO): does not inhibit

SMILES: CC(C)C(=O)O[C@H](CC(=O)[O-])C[N+](C)(C)C [Isobutyryl-L-carnitine, isobutyryl-L-carnitine]
decrease in plasma exposure (OCT1 [2]): 35%
AUC(0–4 h), effect of cimetidine exposure vs baseline (in words) [3, 9]: did not differ
AUC(0–24 h), effect of cimetidine exposure vs baseline (in words) [3, 9]: did not differ
Cmax, effect of cimetidine exposure vs baseline (in words) [3, 9]: did not differ
AUC(0–24 h) %Change (cimetidine exposure/baseline), decrease (↓) [3, 10]: 4% (↓)
Cmax %Change (cimetidine exposure/baseline), decrease (↓) [3, 10]: 6% (↓)

SMILES: CN(C)C(=N)N=C(N)N [Metformin]
increase in metformin blood concentrations [4]: 3.2 fold
reduction in CLr [4]: 73%
decrease in CLr ([5]; oral metformin 250–500 mg with cimetidine, healthy adults): 27–45%
reduction in metformin CLr ([5]; similar cimetidine dosing regimen (400 mg), not statistically significant, ref 26 (Koishikawa et al.)): 15%
Cmax (clinical): 168 ng/mL
Cmax (clinical; 50 mg): 124 ng/mL
reduction of hepatic metformin concentration (Oct1 [6]): 3.4 fold
share of urinary excretion through glomerular filtration [7]: 25%
share of urinary excretion through renal secretion [7]: 75%
higher AUC(0–24 h), group TT compared to heterozygous group TC ([3]; MATE1 c.−66T>C (rs2252281), baseline arm, p = 0.042): 1.42 fold
CLr,b %Change (cimetidine exposure/baseline), decrease (↓) [3, 10]: 17% (↓)
CLr,a %Change (cimetidine exposure/baseline), decrease (↓) ([3]; decrease with cimetidine 400 mg vs baseline, healthy adults, CLr based on 0–24 h): 8% (↓)
Renal OCT2 alone (AUC(0–24 h)) % Change Observed data, increase (↑) ([3]; from the observed CLr decrease): 8% (↑)
AUC(0–24 h) %Change (cimetidine exposure/baseline), increase (↑) [3, 11]: 24% (↑)
Ae(0–4 h) %Change (cimetidine exposure/baseline), increase (↑) [3, 11]: 4% (↑)
AUC(0–24 h) %Change (cimetidine exposure/baseline), increase (↑) ([3]; increase with cimetidine 400 mg vs baseline, healthy adults, listed as metformin): 24%
increase in Cmax with cimetidine treatment ([3]; individuals homozygous for OCT1 c.480G>C (p.Leu160Phe, rs683369), p = 0.006): 48%
increase in AUC(0–24 h) with cimetidine treatment ([3]; individuals homozygous for OCT1 c.480G>C (p.Leu160Phe, rs683369), p = 0.025): 33%
increase in AUC(0–24 h) with cimetidine ([3]; participants homozygous for OCT2 c.1506C>T (p.Val502=, rs316003), p = 0.022): 27%
reduction in CLr,a with cimetidine ([3]; participants homozygous for OCT2 c.518+32G>C (rs2774230) or c.1506C>T (rs316003)): 9%
increase in AUC(0–24 h) with cimetidine ([3]; participants homozygous for OCT2 c.518+32G>C (rs2774230), p = 0.013): 35%

SMILES: C[N+](C)(C)CC(O)CC(=O)[O-] (stereo not drawn) [carnitine]
relative plasma concentrations between study arms [3]: no significant differences

SMILES: C[N+](C)(C)CC(=O)[O-] [glycine betaine]
relative plasma concentrations between study arms [3]: no significant differences
